Test results reported in patent publication US11008340B2, “Modulators of ROR-gamma” (Vitae Pharmaceuticals, LLC, priority 2015, dated 2021).

Legend:
[1] = target: T1, full-length RORγt in Jurkat cells (Homo sapiens, UniProt P51449); assay: RORγt 5×RORE Assay in Jurkat Cells (Assay 2); assay type: cell-based; conditions: 5×RORE luciferase reporter, Table 20, read-out: Avg ROR γt/5x IC5
T1 construct: transcriptional activity of the full-length RORγt in Jurkat cells; host or cells: Jurkat cells (ATCC TIB-152)
T1 sequence (P51449 1-497 isoform P51449-2): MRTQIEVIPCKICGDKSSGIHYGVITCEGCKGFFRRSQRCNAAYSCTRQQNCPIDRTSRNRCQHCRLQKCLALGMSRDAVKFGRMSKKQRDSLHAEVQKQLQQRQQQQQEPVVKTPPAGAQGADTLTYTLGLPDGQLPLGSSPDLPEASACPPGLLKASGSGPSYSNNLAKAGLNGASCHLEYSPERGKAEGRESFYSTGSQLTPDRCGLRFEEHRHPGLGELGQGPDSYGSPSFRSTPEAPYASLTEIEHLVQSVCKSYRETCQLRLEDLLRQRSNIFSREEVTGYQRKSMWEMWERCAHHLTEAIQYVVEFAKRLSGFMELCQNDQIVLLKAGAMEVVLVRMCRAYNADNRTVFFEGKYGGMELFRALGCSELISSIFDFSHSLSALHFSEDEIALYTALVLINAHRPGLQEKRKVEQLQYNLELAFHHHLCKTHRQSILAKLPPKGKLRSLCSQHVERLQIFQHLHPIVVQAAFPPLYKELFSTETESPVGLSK
Procedure: [formula] RORγt 5×RORE Assay in Jurkat Cells (Assay 2)
Compounds described herein were tested for RORγ inverse agonist activity in a cell-based, transcriptional activity assay. Secreted Nanoluc″ luciferase was used as a reporter for transcriptional activity of the full-length RORγt in Jurkat cells (ATCC, Cat. #TIB-152). A reporter plasmid was constructed by inserting 5 repeats of the ROR Response Element (RORE) […] (SEQ ID NO: 1) into a commercially available promoterless plasmid pNL1.3[secNluc] (Promega, Cat. #N1021) using KpnI and HindIII restriction sites. The expression plasmid for RORγt was purchased (Geneocopoeia, Cat. #EX-T6988-M02). Jurkat cells (30 million cells) were transfected with 11 μg of EX-T6988-MO2 and 26 μg of the reporter plasmid in OptiMEM® media using Lipofectamine LTX and Plus™ reagents (Life Technologies, Cat. #15338-100). After 5-6 hrs of incubation at 37° C./5% CO2, the cells were collected, resuspended in phenol-red free RPMI media containing 10% (v/v) delipidated FBS (Hyclone, Cat. #SH30855.03) and dispensed into 96-well clear bottom tissue culture plates (CoStar, Cat. #3603), at 80,000 cells per well. Tested compounds were added to the cells in the same media (final concentration of DMSO was 0.1% (v/v)), and the plates were incubated at 37° C./5% CO2 for 16-18 hrs. Luciferase activity in the conditioned supernatants was determined with NanoGlo® assay reagents (Promega, Cat. #N1130).

[2] = target: T2, recombinant RORγ Ligand Binding Domain (LBD) protein (Homo sapiens, UniProt P51449); assay: Radio-Ligand RORγ Binding Assay (Assay 1); conditions: radio-ligand competition, 25-hydroxy [26,27-3H]-cholesterol, RORγ LBD; read-out: Avg ROR Bind Ki
T2 construct: 6×His; GST
T2 sequence (P51449 269-508 limits assumed): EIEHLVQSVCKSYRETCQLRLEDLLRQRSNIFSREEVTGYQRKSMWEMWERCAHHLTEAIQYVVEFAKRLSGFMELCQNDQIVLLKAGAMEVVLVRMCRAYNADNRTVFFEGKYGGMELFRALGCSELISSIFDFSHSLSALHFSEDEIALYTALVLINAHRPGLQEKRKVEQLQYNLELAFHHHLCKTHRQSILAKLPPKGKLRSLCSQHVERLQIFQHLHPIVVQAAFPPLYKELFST
Method in brief: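 Cell-free SPA competition between compound and 25-hydroxy[26,27-^3H]-cholesterol for 6×His-GST-tagged RORγ LBD in 50 mM HEPES pH 7.4 with NaCl, MgCl2, glycerol, CHAPS, octylglucoside and DTT. Mix was shaken 20 min, held 10 min at rt, then read after poly-Lys YSi beads. IC50 came from a four-parameter fit, and Ki from radioligand KD.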

Row | Compound | IC50 [1] [µM] | Ki [2] [µM]
1 | CC[C@H]1CN(c2ncc(C(F)(F)F)cn2)Cc2cc(C(=O)NCc3ccc(S(=O)(=O)CC)cc3)ccc21 (single isomer, unassigned) [Hy7-9.2] | > 1 | < 0.1
2 | CC[C@H]1CN(c2ncc(C(F)(F)F)cn2)Cc2cc(C(=O)NCc3ccc(S(=O)(=O)CC)cn3)ccc21 (single isomer, unassigned) [Hy7-10.1] | < 0.1 | < 0.1
3 | CC[C@@H]1CN(c2ncc(C3CC3)cn2)Cc2cc(C(=O)N[C@@H](CO)c3ccc(S(=O)(=O)CC)cc3)ccc21 (single isomer, unassigned) [Hy7-11.1] | 0.1 to 1 | < 0.1
4 | CC[C@H]1CN(c2ncc(C3CC3)cn2)Cc2cc(C(=O)N[C@@H](CO)c3ccc(S(=O)(=O)CC)cc3)ccc21 (single isomer, unassigned) [Hy7-11.2] | > 1 | < 0.1
5 | CC[C@@H]1CN(c2ccc(C(F)(F)F)cc2)C(=O)c2cc(C(=O)NCc3ccc(S(=O)(=O)CC)cc3)ccc21 (single isomer, unassigned) [Hy7-12.1] | 0.1 to 1 | < 0.1
6 | CC[C@H]1CN(c2ccc(C(F)(F)F)cc2)C(=O)c2cc(C(=O)NCc3ccc(S(=O)(=O)CC)cc3)ccc21 (single isomer, unassigned) [Hy7-12.2] | 0.1 to 1 | < 0.1
7 | CC[C@@H]1CN(c2ncc(C(F)(F)F)cc2C)Cc2cc(C(=O)NCc3ccc(S(=O)(=O)CC)cc3)ccc21 (single isomer, unassigned) [Hy7-13.1] | < 0.1 | < 0.1
8 | CC[C@H]1CN(c2ncc(C(F)(F)F)cc2C)Cc2cc(C(=O)NCc3ccc(S(=O)(=O)CC)cc3)ccc21 (single isomer, unassigned) [Hy7-13.2] | 0.1 to 1 | < 0.1
9 | CCS(=O)(=O)c1ccc(CNC(=O)c2ccc3c(c2)CN(c2nccc(C(F)(F)F)n2)C[C@H]3C(C)C)cc1 (single isomer, unassigned) [Hy7-14.1] | > 1 | < 0.1
10 | CCS(=O)(=O)c1ccc(CNC(=O)c2ccc3c(c2)CN(c2nccc(C(F)(F)F)n2)C[C@@H]3C(C)C)cc1 (single isomer, unassigned) [Hy7-14.2] | > 1 | < 0.1
11 | CCS(=O)(=O)c1ccc(CNC(=O)c2ccc3c(c2)CN(c2ncc(C(F)(F)F)cn2)C[C@H]3C(C)C)cc1 (single isomer, unassigned) [Hy7-15.1] | 0.1 to 1 | < 0.1
12 | CCOC(=O)c1cnc(N2Cc3cc(C(=O)NCc4ccc(S(=O)(=O)CC)cc4)ccc3[C@H](C(C)C)C2)nc1 (single isomer, unassigned) [Hy7-16.1] | < 0.1 | < 0.1
13 | CCC1CN(c2ncc(C(F)(F)F)cn2)Cc2cc(C(=O)N[C@@H](CO)c3ccc(S(=O)(=O)CC)cc3)ccc21 (single isomer, unassigned) [Hy7-17.1] | < 0.1 | < 0.1
14 | CCC1CN(c2ncc(C(F)(F)F)cn2)Cc2cc(C(=O)N[C@@H](CO)c3ccc(S(=O)(=O)CC)cc3)ccc21 (single isomer, unassigned) [Hy7-17.2] | > 1 | < 0.1
15 | CC[C@@H]1CN(c2ncc(C(F)(F)F)cn2)Cc2cc(C(=O)N[C@@H](CO)c3ccc(S(=O)(=O)CC)cn3)ccc21 (single isomer, unassigned) [Hy7-18.1] | < 0.1 | < 0.1
16 | CC[C@@H]1CN(c2ncc(C(F)(F)F)cn2)Cc2cc(C(=O)N[C@H](CO)c3ccc(S(=O)(=O)CC)cn3)ccc21 (single isomer, unassigned) [Hy7-18.2] | > 1 | < 0.1
17 | CC[C@@H]1CN(c2ncc(-c3cccc(OC)n3)cn2)Cc2cc(C(=O)NCc3ccc(S(=O)(=O)CC)cc3)ccc21 (single isomer, unassigned) [Hy7-20.1] | < 0.1 | < 0.1
18 | CCS(=O)(=O)c1ccc(CNC(=O)c2ccc3c(c2)CN(c2ncc(-c4ccc(=O)[nH]c4)cn2)C[C@H]3C(C)C)cc1 (single isomer, unassigned) [Hy7-21.1] | 0.1 to 1 | < 0.1
